# Measured values: patent US20230332230A1, “BIOMARKERS AND USES THEREOF IN THE TREATMENT OF CHRONIC HEPATITIS B INFECTION” (Janssen Sciences Ireland Unlimited Company, priority 2020, published 2023)
# Columns and labels:
# Format in all cases: in vivo, human
# [1] = system: chronic hepatitis B (CHB) patients; assay: Time to virological relapse after discontinuation of NUC treatment (Cox proportional hazard regression); settings: for HR: hazard ratio for virological relapse after stop of treatment, treatment regimen tenofovir vs entecavir
# From the text: (§1) Patients and Study Design: In this multi-center prospective study in Taiwan, 242 CHB patients were enrolled while in their last half year of a minimum 3-year treatment regimen with direct antivirals. Of them, 47 were excluded due to protocol violation, screening failure, lost to follow-up, withdrawal by the subject, use of immune related therapy, or on-treatment clinical relapse. An additional 14 were excluded as the analysis required patients to be hepatitis B e-antigen (HBeAg) negative, hepatitis virus (HBV) DNA < 60 IU/mL, and alanine transaminase (ALT) < 80 U/L at the last on-treatment visit, leaving 186 patients eligible for analysis.
# (§2) Patients were followed for up to two years after treatment discontinuation while assessing virological and clinical relapse, provided that treatment was not re-initiated. Virological relapse was defined as HBV DNA ≥ 2000 IU/mL. Clinical relapse was defined as ALT level ≥ 2x ULN in addition to a virological relapse. A patient was denoted a sustained clinical responder in case no clinical and no virological relapse occurred during the entire follow-up period after treatment cessation.
# (§3) Statistical Analysis: Continuous variables are presented as means ± standard deviations, categorical variables by counts and percentages. The Student t test and Fisher exact test were used to compare continuous and categorical covariates, respectively, between groups. Cumulative incidence of virological and clinical relapse after stop of treatment was assessed by Kaplan-Meier curves including the log-rank test. Cox proportional hazard regression analysis was applied for univariate and multivariate models of time to virological and clinical relapse. To assess associations to sustained clinical response, logistic regression analysis was performed. All statistical analyses were executed within the R(3.4.3) statistical software. Statistical tests were two-sided and considered significant at the 0.05 significance level.
# (§4) Statistical Analysis of Genetics Data: All the statistical analyses were performed in R (3.4.3). The association between the SNPs and the time to clinical relapse and time to viral relapse was assessed using a Cox proportional hazard model, considering the prior treatment. • Surv(TIME_VIRAL_RELAPSE,STATUS_VIRAL_RELAPSE) ~ GENETIC + LAST_TREATMENT • Surv(TIME_CLINICAL _RELAPSE,STATUS_CLINICAL_RELAPSE) ~ GENETIC + LAST_TREATMENT
# (§5) Merge With Genetic Data: For both clinical and virological relapse, the significant clinical covariates (Table 4 and Table 5) are merged with the corresponding significant hits from the GWAS analysis. Cox proportional regression analysis with lasso regularization is applied to assess the combined association of the clinical and genetic covariates to relapse. Note that a threshold was set to the absolute values of the coefficients to be included in the final Cox model, equal to 0.35 and 0.2 for clinical and virological relapse respectively.
# (§6) Cumulative incidence of virological and clinical relapse after stop of treatment was assessed by Kaplan-Meier curves. In addition, Cox proportional hazard regression analysis (Therneau Terry M., et al., Statistics in Medicine. 2001, 20(13):2053-2054) was applied, obtaining univariate and multivariate models for time to virological and clinical relapse (model fits are provided in Table 23a and Table 23b for virological and clinical relapse respectively).
# (§7) Statistical Analysis of Genetics Data: Considering that HBsAg status at the end of treatment and treatment regimen were predictive for onset of relapse, the association between the SNPs and onset of relapse was assessed using a Cox model^1 including HBsAg level at the last visit on treatment (high (≥ 100 IU/mL) vs. low (< 100 IU/mL)) and the antiviral treatment at enrollment (tenofovir vs. entecavir) as main effects. […]
# [2] = system: chronic hepatitis B (CHB) patients; assay: Time to clinical relapse after discontinuation of NUC treatment (Cox proportional hazard regression)
# From the text: as §1, §2, §3, §4, §5, §6, §7
# [3] = system: chronic hepatitis B (CHB) patients; assay: Logistic regression model predicting clinical relapse before 6 months after stop of treatment; settings: Table 12; model with treatment regimen, EOT HBsAg and all SNPs predicting CR
# Method: Prediction of Clinical Relapse: The receiver operating characteristic (ROC) curve was analyzed for treatment regimen, EOT HBsAg (≥ 100 IU/mL vs < 100 IU/mL), rs4668818, rs948006, rs2934456, rs77586835, rs75876539, rs8050261, rs1542951, rs231770, rs9277535, or a combination of these covariates, in predicting clinical relapse (CR) after stop of treatment.
# [4] = system: chronic hepatitis B (CHB) patients; assay: Logistic regression model predicting viral relapse before 3 months after stop of treatment; settings: Table 13; model with treatment regimen, EOT HBsAg, baseline HBeAg status and all SNPs predicting VR
# Method: Prediction of Virological Relapse: The receiver operating characteristic (ROC) curve was analyzed for treatment regimen, EOT HBsAg (≥ 100 IU/mL vs < 100 IU/mL), baseline HBeAg status, all 30 SNPs associated to virological relapse (VR), or a combination of these covariates, in predicting virological relapse (VR) after stop of treatment are represented on FIG. 22 (3 months), FIG. 23 (6 months), FIG. 24 (1 year) and FIG. 25 (2 years).
# [5] = system: chronic hepatitis B (CHB) patients; assay: Sustained clinical response after discontinuation of NUC treatment (logistic regression)
# From the text: Patients and Study Design: In this multi-center prospective study in Taiwan, 242 CHB patients were enrolled while in their last half year of a minimum 3-year treatment regimen with direct antivirals. Of them, 47 were excluded due to protocol violation, screening failure, lost to follow-up, withdrawal by the subject, use of immune related therapy, or on-treatment clinical relapse. An additional 14 were excluded as the analysis required patients to be hepatitis B e-antigen (HBeAg) negative, hepatitis virus (HBV) DNA < 60 IU/mL, and alanine transaminase (ALT) < 80 U/L at the last on-treatment visit, leaving 186 patients eligible for analysis. Patients were followed for up to two years after treatment discontinuation while assessing virological and clinical relapse, provided that treatment was not re-initiated. Virological relapse was defined as HBV DNA ≥ 2000 IU/mL. Clinical relapse was defined as ALT level ≥ 2x ULN in addition to a virological relapse. […] Cumulative incidence of virological and clinical relapse after stop of treatment was assessed by Kaplan-Meier curves including the log-rank test. […] Considering that HBsAg status was representative of disease progression, the association between the SNPs and sustained clinical response was assessed using a logistic model, considering HBsAg levels (high (≥ 100 IU/mL) vs. low (< 100 IU/mL)) at the last visit before end of antiviral treatment. […]
# [6] = later after stopping entecavir treatment compared to tenofovir treatment, Example 1
smiles,measurement,setting,value
"C=C1[C@H](CO)[C@@H](O)C[C@@H]1n1cnc2c(=O)[nH]c(N)nc21 [Entecavir, entecavir]","Onset of virological relapse, average delay",[1]; [6],119 days
same,"Onset of clinical relapse, average delay","[2]; among the 110 clinical relapsers, later after stopping entecavir compared to tenofovir, Example 3",100 days
same,"Onset of clinical relapse, average delay",[2]; [6],115 days
"C[C@H](Cn1cnc2c(N)ncnc21)OCP(=O)(O)O [Tenofovir, tenofovir]","Clinical relapse before 6 months, odds ratio (Estimate)",[3],4.008
same,"Virological relapse, multivariate analysis HR (95% CI)","[1]; Table 5, Example 1, Cox regression, treatment regimen vs entecavir, after stop of treatment",3.02
same,"Virological relapse, univariate analysis HR (95% CI)","[1]; Table 5, Cox regression, treatment regimen vs entecavir, after stop of treatment, N = 186",2.49 (1.77-3.49)
same,"Time to virological relapse, lasso regression, mean estimated hazard ratio","[1]; Table 11, clinical and genetic covariates, mean across 1000 iterations, vs entecavir",2.662
same,"Virological relapse, multivariate analysis HR (95% CI)","[1]; Table 23a, Example 3, multivariate with age, baseline HBeAg, EOT HBsAg, vs entecavir",2.97 (2.10-4.20)
same,"Virological relapse, multivariate analysis HR (95% CI)","[1]; Table 23a, Example 3, multivariate with age, baseline HBeAg, EOT HBsAg, vs entecavir, listed as tenofovir",2.97
same,"Virological relapse, univariate analysis HR (95% CI)","[1]; Table 23a, Example 3, vs entecavir",2.49 (1.77-3.49)
same,HR,[1]; multivariate Cox model with HBsAg at end of treatment and all 33 SNPs (Table 27a),7.26
same,HR,[1]; multivariate Cox model with HBsAg at end of treatment and the 17 Virological signature SNPs (Table 27b),7.06
same,"Viral relapse before 3 months, odds ratio (Estimate)",[4],3010
same,"Clinical relapse, multivariate analysis HR (95% CI)","[2]; Table 4, Example 1, Cox regression, treatment regimen vs entecavir, after stop of treatment",1.78 (1.20-2.64)
same,"Clinical relapse, multivariate analysis HR (95% CI)","[2]; Table 4, Example 1, Cox regression, treatment regimen vs entecavir, after stop of treatment, listed as tenofovir",1.74
same,"Clinical relapse, univariate analysis HR (95% CI)","[2]; Table 4, Cox regression, treatment regimen vs entecavir, after stop of treatment, N = 186",1.77 (1.19-2.62)
same,"Time to clinical relapse, lasso regression, mean estimated hazard ratio","[2]; Table 10, clinical and genetic covariates, mean across 1000 iterations, vs entecavir",1.492
same,"Clinical relapse, multivariate analysis HR (95% CI)","[2]; Table 23b, Example 3, multivariate with age, EOT HBsAg, vs entecavir",1.87 (1.26-2.78)
same,"Clinical relapse, multivariate analysis HR (95% CI)","[2]; Table 23b, Example 3, multivariate with age, EOT HBsAg, vs entecavir, listed as tenofovir",1.80
same,"Clinical relapse, univariate analysis HR (95% CI)","[2]; Table 23b, Example 3, vs entecavir",1.77 (1.19-2.62)
same,"Clinical relapse HR, Cox model including the Clinical SNP signature","[2]; Table 26b, HBsAg and treatment regimen as main effects plus six SNPs, vs entecavir",1.89
same,HR,"[2]; hazard ratio for clinical relapse after stop of treatment, treatment regimen tenofovir vs entecavir, multivariate Cox model with HBsAg at end of treatment and all nine SNPs",1.75
same,"Sustained clinical response, univariate analysis OR (95% CI)","[5]; Table 6, treatment regimen vs entecavir",0.79 (0.29-2.03)
same,"Sustained clinical response, univariate analysis OR (95% CI)","[5]; Table 15, Example 2, vs entecavir",0.79 (0.29-2.03)
